Data published in patent publication US7951827B2, “Synthesis and antiprotozoal activity of dicationic 3,5-diphenylisoxazoles” (The University of North Carolina at Chapel Hill, priority 2005, dated 2011).
Where a name gives a salt, the structure may show the parent alone. Read-outs that look alike come from different tables or passages of the source.

Experiments:
[1] = system: Trypanosoma brucei brucei; assay: In vitro antiprotozoal activity against Trypanosoma brucei brucei; format: cell-based
Protocol: (§1) In vitro antiprotozoal activities, see Ismail, M. A., et al., J. Med. Chem. 46, 4761-4769 (2003), and cytotoxicity were measured following established protocols, see Balz, T., et al., EMBO J., 4, 1273-1277 (1985); Räz. B., et al., Acta Trop., 68:139-147 (1997); and Sperandeo, N. R. et al., Chem. Biochem., 4, 69-73 (2003). […] Other positive controls employed were melarsoprol (against T. brucei), chloroquine, and artemisinin (against P. falciparum), and podophyllotoxin (against VERO cells).

Plasmodium falciparum = assay: In vitro antiprotozoal activity against Plasmodium falciparum; format: cell-based
Protocol: as §1

[2] = Cytotoxicity to VERO cells; format: cell-based, African green monkey (Cercopithecus Aethiops); details: African green monkey (Cercopithecus aethiops), IC50 (μM) Cytotoxicity VERO cells
Protocol: as §1

VERO cells = assay: Cytotoxicity to VERO cells; format: cell-based, African green monkey (Cercopithecus Aethiops)
Protocol: as §1

[3] = Trypanosoma brucei, Table 1, read-out: IC50 (μM) Trypanosoma brucei brucei
[4] = Plasmodium falciparum, Table 1, read-out: IC50 (μM) Plasmodium falciparum
[5] = Chlorocebus sabaeus, Vero, read-out: IC50 value against VERO cells
[6] = Table 1, read-out: IC50 (μM) Trypanosoma brucei brucei
[7] = Table 1, read-out: IC50 (μM) Plasmodium falciparum
[8] = Table 1, read-out: IC50 (μM) Cytotoxicity VERO cells
[9] = Trypanosoma brucei, read-out: IC50 values against T. brucei brucei
[10] = Plasmodium falciparum, read-out: antiplasmodial IC50 values (P. falciparum)

SMILES | IC50 [1, 3] [µM] | IC50 (Plasmodium falciparum; [4]) [µM] | IC50 [2] [µM] | toxicity (VERO cells) in words (VERO cells) | IC50 (VERO cells; [5]) [µM] | melting point | IC50 [1, 6] [µM] | IC50 (Plasmodium falciparum; [7]) [µM] | IC50 (VERO cells; [8]) [µM] | IC50 [1, 9] [µM] | IC50 (Plasmodium falciparum; [10]) [µM] | selectivities against P. falciparum over T. brucei brucei (Plasmodium falciparum) [fold] | IC50 (VERO cells) [µM]
Cl.Cl.N=C(N)c1cccc(-c2cc(-c3ccc(C(=N)N)cc3[N+](=O)[O-])no2)c1 [Compound 27, 3-(4-Amidino-2-nitrophenyl)-5-(3-amidinophenyl)isoxazole dihydrochloride] | 0.0194 | 0.0304 | 206 | low toxicity | > 100 | 236 °C (dec.) |  |  |  |  |  |  | 
c1cc(C2=NCCN2)cc(-c2cc(-c3cccc(C4=NCCN4)c3)on2)c1 [Compound 34, 3,5-Bis[3-(2-imidazolinyl)phenyl]isoxazole dihydrochloride] |  |  |  |  |  |  | 18.5 | 0.227 | 26.2 |  |  |  | 
COc1cc(C(=N)N)ccc1-c1cc(-c2cc(C(=N)N)ccc2OC)on1.Cl.Cl [Compound 31, 3-(4-Amidino-2-methoxyphenyl)-5-(5-amidino-2-methoxyphenyl)isoxazole dihydrochloride] | 0.0057 | 0.0297 | 191 |  | > 100 | 330 °C (dec.) |  |  |  | 0.0035 to 0.009 | 0.008 to 0.03 |  | 
Cl.Cl.N=C(N)c1cccc(-c2cc(-c3cc(C(=N)N)ccc3Cl)on2)c1 [Compound 36, 5-(5-Amidino-2-chlorophenyl)-3-(3-amidinophenyl)isoxazole dihydrochloride] | 0.0251 | 0.0163 | 109 | low toxicity | > 100 | 347 °C (dec.) |  |  |  |  | 0.008 to 0.03 |  | 
COc1cc(C(=N)N)ccc1-c1cc(-c2ccc(C(=N)N)cc2OC)on1 [Compound 12, 3,5-Bis(4-amidino-2-methoxyphenyl)isoxazole dihydrochloride] | 0.013 | 0.0061 | 84.8 |  | > 100 |  |  |  |  |  | < 0.008 |  | 
COc1cc(C(=N)N)ccc1-c1cc(-c2ccc(C(=N)N)cc2)no1 [Compound 8, 5-(4-Amidino-2-methoxyphenyl)-3-(4-amidinophenyl)isoxazole dihydrochloride] | 0.0106 | 0.006 | 122 |  | > 100 |  |  |  |  |  | < 0.008 |  | 
CC(C)NC(=N)c1ccc(-c2cc(-c3cccc(C(=N)NC(C)C)c3)no2)cc1.Cl.Cl [Compound 14, 3-[3-(N-Isopropyl)amidinophenyl]-5-[4-(N-isopropyl)amidinophenyl]-isoxazole dihydrochloride] | 0.488 | 0.0106 | 187 | very nontoxic | > 100 | > 350 °C |  |  |  |  | 0.008 to 0.03 | 45 | 
COc1ccc(C(=N)N)cc1-c1cc(-c2cccc(C(=N)N)c2)no1.Cl.Cl [Compound 37, 5-(5-Amidino-2-methoxyphenyl)-3-(3-amidinophenyl)isoxazole dihydrochloride] | 0.0074 | 0.0192 | 124 |  | > 100 | 240 °C (dec.) |  |  |  | 0.0035 to 0.009 | 0.008 to 0.03 |  | 
COc1cc(C(=N)N)ccc1-c1cc(-c2ccc(C(=N)N)cc2)on1.Cl.Cl [Compound 11, 3-(4-Amidino-2-methoxyphenyl)-5-(4-amidinophenyl)isoxazole dihydrochloride] | 0.0164 | 0.0663 | 92.6 |  | > 100 | 335 to 337 °C (dec.) |  |  |  |  |  |  | 
CC(C)NC(=N)c1ccc(-c2cc(-c3cccc(C(=N)NC(C)C)c3)on2)cc1.Cl.Cl [Compound 23, 3-[4-(N-Isopropyl)amidinophenyl]-5-[3-(N-isopropyl)amidinophenyl]-isoxazole dihydrochloride] | 0.316 | 0.0347 | 186 | very nontoxic | > 100 | 340 to 343 °C (dec.) |  |  |  |  |  |  | 
Cl.Cl.N=C(N)c1cccc(-c2cc(-c3cc(C(=N)N)ccc3[N+](=O)[O-])no2)c1 [Compound 38, 3-(5-Amidino-2-nitrophenyl)-5-(3-amidinophenyl)isoxazole dihydrochloride] | 0.085 | 0.104 | 177 | low toxicity | > 100 | 220 °C (dec.) |  |  |  |  |  |  | 
c1cc(C2=NCCN2)cc(-c2cc(-c3ccc(C4=NCCN4)cc3)on2)c1 [Compound 15, 3-[3-(2-Imidazolinyl)phenyl]-5-[4-(2-imidazolinyl)phenyl]isoxazole dihydrochloride] |  |  |  |  |  |  | 1.55 | 0.0512 | 65 |  |  |  | 
Cl.Cl.N=C(N)c1cccc(-c2cc(-c3cccc(C(=N)N)c3)on2)c1 [Compound 32, 3,5-Bis(3-amidinophenyl)isoxazole dihydrochloride] | 0.029 | 0.0092 | 153 | low toxicity | > 100 | 365 to 367 °C |  |  |  | 0.029 | 0.008 to 0.03 |  | 
Cl.Cl.N=C(N)c1ccc(-c2cc(-c3cc(C(=N)N)ccc3[N+](=O)[O-])no2)cc1 [Compound 19, 3-(5-Amidino-2-nitrophenyl)-5-(4-amidinophenyl)isoxazole dihydrochloride] | 0.0512 | 0.0021 | 5.07 | quite toxic |  | 238 to 240 °C |  |  |  |  |  |  | 
COc1ccc(C2=NCCN2)cc1-c1cc(-c2cc(C3=NCCN3)ccc2OC)on1 [Compound 43, 3,5-Bis[5-(2-imidazolinyl)-2-methoxyphenyl]isoxazole dihydrochloride] |  |  |  |  |  |  | 0.0448 | 0.0114 |  |  |  |  | 164
CC(C)NC(=N)c1ccc(-c2cc(-c3ccc(C(=N)NC(C)C)cc3)on2)cc1.Cl.Cl [Compound 4, 3,5-Bis[4-(N-isopropyl)amidinophenyl]isoxazole dihydrochloride] | 0.196 | 0.0066 | 176 | very nontoxic | > 100 |  |  |  |  |  | < 0.008 | 30 | 
COc1cc(C(=N)N)ccc1-c1cc(-c2cccc(C(=N)N)c2)no1.Cl.Cl [Compound 18, 5-(4-Amidino-2-methoxyphenyl)-3-(3-amidinophenyl)isoxazole dihydrochloride] | 0.0065 | 0.0035 | 177 |  | > 100 | 241 to 246 °C |  |  |  | 0.0065 |  |  | 
COc1ccc(C(=N)N)cc1-c1cc(-c2ccc(C(=N)N)cc2[N+](=O)[O-])no1.Cl.Cl [Compound 30, 5-(5-Amidino-2-methoxyphenyl)-3-(4-amidino-2-nitrophenyl)isoxazole dihydrochloride] | 0.0342 | 0.0195 | 116 |  | > 100 | 260 °C (dec.) |  |  |  |  | 0.008 to 0.03 |  | 
COc1ccc(C(=N)N)cc1-c1cc(-c2ccc(C(=N)N)cc2)on1.Cl.Cl [Compound 21, 3-(5-Amidino-2-methoxyphenyl)-5-(4-amidinophenyl)isoxazole dihydrochloride] | 0.0118 | 0.0026 | 213 |  | > 100 | 272 to 275 °C |  |  |  |  |  |  | 
c1cc(-c2cc(-c3ccc(C4=NCCN4)cc3)on2)ccc1C1=NCCN1 [Compound 5, 3,5-Bis[4-(2-imidazolinyl)phenyl]isoxazole dihydrochloride] |  |  |  |  |  |  | 0.0872 | 0.0041 |  |  |  |  | 1.81
